In patent US20240425492A1, “POLYMORPHS AS ERBB INHIBITORS” (Black Diamond Therapeutics, Inc., priority 2021, published 2024):
In brackets after ≈: the same amount, converted by molar mass.

Legend:
[1] = Hygroscopicity by DVS at 25° C.; format: physicochemical; conditions: for Desorp. (%) / Sorp. (%): DVS 25° C.
Experimental: Dynamic Vapor Sorption (DVS): DVS analysis was performed using Intrinsic. Analysis was performed using parameters as set forth below.
The hygroscopicity for Form C and Form F was examined. See, e.g., Table E.

[2] = Bulk stability under accelerated storage conditions (XRPD and HPLC); conditions: for Bulk (XRPD) / Purity, Bulk (HPLC): Solid state
Excerpt: Solids obtained after bulk stability study were characterized by XRPD and HPLC.

[3] = Solubility study in aqueous media at 37° C. (HPLC of supernatants, pH); conditions: for solubility / solubility at 2 h / solubility at 24 h: 37 °C, thermodynamic from solid
Experimental: 2.01 mg of the free base Form C (equal to 2 mg free base after correction for water content) was weighed into 2 mL vial. 2.09 mg of the free base Form F (equal to 2 mg free base after correction for water content) was weighed into a 2 mL vial. I mL of aqueous media was added, respectively. These suspensions were stirred at 37° C. at a rate of 400 rpm. These suspensions were taken out after 2 h and 24 h, and then centrifuged at 14,000 rpm for 5 minutes. The supernatants were analyzed by HPLC. The pH of the supernatants were tested.

[4] = 25° C./92.5% RH in an open vial, 2 weeks
[5] = 25° C./92.5% RH in an open vial, 4 weeks
[6] = 40° C./75% RH in an open vial, 2 weeks
[7] = 40° C./75% RH in an open vial, 4 week
[8] = 60° C., tight container, 2 weeks
[9] = 60° C., tight container, 4 weeks
[10] = SGF, pH 2, simulated gastric fluid
[11] = pH 1.0 HCl solution (0.1N), pH 1, simulated gastric fluid
[12] = pH 4.5 acetate buffer (50 mM), pH 4.5, aqueous buffer
[13] = pH 6.8 phosphate buffer (50 mM), pH 6.8, aqueous buffer

For `CN1C[C@H]2C[C@@]2(C#Cc2cc3ncnc(Nc4cccc(Cl)c4F)c3cc2NC(=O)/C=C/CN2CCOCC2)C1` [Form C], the “DVS water uptake at 90% RH” value ([1]; 25° C., dm/dt = 0.002%) was 1.6% water uptake at 90% RH, the “DVS water uptake at 95% RH” value ([1]; 25° C., dm/dt = 0.002%) was 2.3% water uptake at 95% RH and the “Desorp. (%)” value ([1]; Relative Humidity 0%, first Desorp.) was 0.2%. For the same compound, the “Sorp. (%)” value ([1]; Relative Humidity 0%, first Sorp.) was 0.2%, the “Desorp. (%)” value ([1]; Relative Humidity 0%, second Desorp.) was 0.0% and the “Sorp. (%)” value ([1]; Relative Humidity 0%, second Sorp.) was 0.0%. For the same compound, the “Desorp. (%)” value ([1]; Relative Humidity 10%, first Desorp.) was 0.3%, the “Sorp. (%)” value ([1]; Relative Humidity 10%, first Sorp.) was 0.2% and the “Desorp. (%)” value ([1]; Relative Humidity 10%, second Desorp.) was 0.1%. The “Sorp. (%)” value ([1]; Relative Humidity 10%, second Sorp.) was 0.1%, the “Desorp. (%)” value ([1]; Relative Humidity 20%, first Desorp.) was 0.4% and the “Sorp. (%)” value ([1]; Relative Humidity 20%, first Sorp.) was 0.3%. For the same compound, the “Desorp. (%)” value ([1]; Relative Humidity 20%, second Desorp.) was 0.2%, the “Sorp. (%)” value ([1]; Relative Humidity 20%, second Sorp.) was 0.2% and the “Desorp. (%)” value ([1]; Relative Humidity 30%, first Desorp.) was 0.5%. For the same compound, the “Sorp. (%)” value ([1]; Relative Humidity 30%, first Sorp.) was 0.4%, the “Desorp. (%)” value ([1]; Relative Humidity 30%, second Desorp.) was 0.3% and the “Sorp. (%)” value ([1]; Relative Humidity 30%, second Sorp.) was 0.3%. For the same compound, the “Desorp. (%)” value ([1]; Relative Humidity 40%, first Desorp.) was 0.5%, the “Sorp. (%)” value ([1]; Relative Humidity 40%, first Sorp.) was 0.4% and the “Desorp. (%)” value ([1]; Relative Humidity 40%, second Desorp.) was 0.4%. The “Sorp. (%)” value ([1]; Relative Humidity 40%, second Sorp.) was 0.3%, the “Sorp. (%)” value ([1]; Relative Humidity 50%, first Sorp.) was 0.5% and the “Desorp. (%)” value ([1]; Relative Humidity 50%, second Desorp.) was 0.6%. For the same compound, the “Sorp. (%)” value ([1]; Relative Humidity 60%, first Sorp.) was 0.6%, the “Desorp. (%)” value ([1]; Relative Humidity 60%, second Desorp.) was 1.1% and the “Sorp. (%)” value ([1]; Relative Humidity 70%, first Sorp.) was 0.8%. For the same compound, the “Desorp. (%)” value ([1]; Relative Humidity 70%, second Desorp.) was 1.4%, the “Sorp. (%)” value ([1]; Relative Humidity 80%, first Sorp.) was 1.2% and the “Desorp. (%)” value ([1]; Relative Humidity 80%, second Desorp.) was 1.7%. For the same compound, the “Sorp. (%)” value ([1]; Relative Humidity 90%, first Sorp.) was 1.8%, the “Desorp. (%)” value ([1]; Relative Humidity 90%, second Desorp.) was 2.2% and the “Sorp. (%)” value ([1]; Relative Humidity 95%, first Sorp.) was 2.5%. For the same compound, the “Desorp. (%)” value ([1]; Relative Humidity 95%, second Desorp.) was 2.5%, the “XRPD after DVS test” value ([1]; DVS at 25° C.) was “No form change” and the “HPLC area Purity” value ([2]; 1 Month, 5° C.) was 98.2%. For the same compound, the Water content ([2]; 1 Month, 5° C.) was 0.5%, the “impurity RRT0.967” value ([2]; 1 Month, 5° C.) was 0.07% and the “impurity RRT0.971” value ([2]; 1 Month, 5° C.) was 0.08%. The “impurity RRT1.20” value ([2]; 1 Month, 5° C.) was 0.06%, the “impurity RRT1.24” value ([2]; 1 Month, 5° C.) was 1.4% and the “impurity RRT1.26” value ([2]; 1 Month, 5° C.) was 0.13%. For the same compound, the “impurity RRT1.28” value ([2]; 1 Month, 5° C.) was 0.11%, the “HPLC area Purity” value ([2]; 1 Month, 25° C./60% RH) was 98.2 and the Water content ([2]; 1 Month, 25° C./60% RH) was 0.4%. The “impurity RRT0.967” value ([2]; 1 Month, 25° C./60% RH) was 0.07%, the “impurity RRT0.971” value ([2]; 1 Month, 25° C./60% RH) was 0.08% and the “impurity RRT1.20” value ([2]; 1 Month, 25° C./60% RH) was 0.06%. The “impurity RRT1.24” value ([2]; 1 Month, 25° C./60% RH) was 1.4%, the “impurity RRT1.26” value ([2]; 1 Month, 25° C./60% RH) was 0.13% and the “impurity RRT1.28” value ([2]; 1 Month, 25° C./60% RH) was 0.11%. For the same compound, the “HPLC area Purity” value ([2]; 1 Month, 40° C./75% RH) was 98.2%, the Water content ([2]; 1 Month, 40° C./75% RH) was 0.7% and the “impurity RRT0.967” value ([2]; 1 Month, 40° C./75% RH) was 0.08%. The “impurity RRT0.971” value ([2]; 1 Month, 40° C./75% RH) was 0.08%, the “impurity RRT1.20” value ([2]; 1 Month, 40° C./75% RH) was 0,07% and the “impurity RRT1.24” value ([2]; 1 Month, 40° C./75% RH) was 1.4%. For the same compound, the “impurity RRT1.26” value ([2]; 1 Month, 40° C./75% RH) was 0.13%, the “impurity RRT1.28” value ([2]; 1 Month, 40° C./75% RH) was 0.11% and the “HPLC area Purity” value ([2]; Initial) was 98.1. The Water content ([2]; Initial) was 0.4%, the “impurity RRT0.967” value ([2]; Initial) was 0.09% and the “impurity RRT0.971” value ([2]; Initial) was 0.06%. The “impurity RRT1.20” value ([2]; Initial) was 0.06%, the “impurity RRT1.24” value ([2]; Initial) was 1.4% and the “impurity RRT1.26” value ([2]; Initial) was 0.13%. The “impurity RRT1.28” value ([2]; Initial) was 0.12%, the “impurity RrRT1.12” value ([2]; Initial) was 0.05% and the polymorph ([2]; Initial) was “Form C”. For the same compound, the “Bulk (XRPD)” value [2, 4] was “No form change”, the “Purity, Bulk (HPLC)” value [2, 4] was 96.6% and the “Bulk (XRPD)” value [2, 5] was “No form change”. For the same compound, the “Purity, Bulk (HPLC)” value [2, 5] was 96.4%, the “Bulk (XRPD)” value [2, 6] was “No form change” and the “Purity, Bulk (HPLC)” value [2, 6] was 95.5%. For the same compound, the “Bulk (XRPD)” value [2, 7] was “No form change”, the “Purity, Bulk (HPLC)” value [2, 7] was 94.6% and the “Bulk (XRPD)” value [2, 8] was “No form change”. For the same compound, the “Purity, Bulk (HPLC)” value [2, 8] was 95.5%, the “Bulk (XRPD)” value [2, 9] was “No form change” and the “Purity, Bulk (HPLC)” value [2, 9] was 93.3%. The “form change after bulk stability study (XRPD)” value ([2]; three accelerated conditions, two weeks and four weeks) was “do not change forms”, the “stability in FaSSIF-v1” value ([3]; 37° C., FaSSIF-v1) was “degraded” and the “stability in FeSSIF-v1” value ([3]; 37° C., FeSSIF-v1) was “degraded”. For the same compound, the “2 h Solubility” value ([3]; FaSSIF-v1, pH 6.5, 37° C.) was “Degradation”, the “24 h Solubility” value ([3]; FaSSIF-v1, pH 6.5, 37° C.) was “Degradation” and the “2 h Solubility” value ([3]; FeSSIF-v1, pH 5.0, 37° C.) was “Degradation”. The “24 h Solubility” value ([3]; FeSSIF-v1, pH 5.0, 37° C.) was “Degradation”, the solubility [3, 10] was over 2000 µg/mL and the solubility at 2 h [3, 10] was over 2000 µg/mL. The solubility at 24 h [3, 10] was over 2000 µg/mL, the “24 h (pH) of supernatant” value ([3]; SGF, pH 2.0, 37° C.) was “pH 3.7” and the “24 h (pH) of supernatant” value ([3]; Water, 37° C.) was “pH 7.4”. The “24 h (pH) of supernatant” value ([3]; pH 1.0 (0.1N HCl), 37° C.) was “pH 1.0”, the solubility at 2 h [3, 11] was over 2000 µg/mL and the solubility at 24 h [3, 11] was over 2000 µg/mL. The solubility ([3]; pH 1.0 HCl solution, pH 1, simulated gastric fluid) was over 2000 µg/mL, the “24 h (pH) of supernatant” value ([3]; pH 4.5 (50 mM) acetate buffer, 37° C.) was “pH 4.5” and the solubility [3, 12] was over 2000 µg/mL. The solubility at 2 h [3, 12] was 2000 µg/mL (≈ 3560 µM), the solubility at 24 h [3, 12] was over 2000 µg/mL and the “24 h (pH) of supernatant” value ([3]; pH 6.8 (50 mM) phosphate buffer, 37° C.) was “pH 6.7”. The solubility [3, 13] was about 20 µg/mL (≈ 35.6 µM), the solubility at 2 h [3, 13] was 20.4 µg/mL (≈ 36.4 µM) and the solubility at 24 h [3, 13] was 16.5 µg/mL (≈ 29.4 µM). The solubility ([3]; pure water, water) was under 10 µg/mL, the solubility at 2 h ([3]; water) was 1.6 µg/mL (≈ 2.85 µM) and the solubility at 24 h ([3]; water) was 2 µg/mL (≈ 3.56 µM).
